# Measurements published in PubChem BioAssay (NCI).
#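 The concentration for 50% growth inhibition is given as GI50. At the TGI there is no net growth.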
# How the values were obtained:
# Assay in all cases: NCI anticancer screen, dose series, 384-well format
# NCI-H460 NSCLC = tested on: NCI-H460 NSCLC
# UACC-257 melanoma = tested on: UACC-257 melanoma
# M14 melanoma = tested on: M14 melanoma
# OVCAR-5 ovarian = tested on: OVCAR-5 ovarian
# KM12 colon = tested on: KM12 colon
# SF-268 CNS = tested on: SF-268 CNS
# RXF 393 renal = tested on: RXF 393 renal
# MDA-MB-231 breast = tested on: MDA-MB-231 breast
# COLO 205 colon = tested on: COLO 205 colon
# MCF7 breast = tested on: MCF7 breast
# TK-10 renal = tested on: TK-10 renal
# MALME-3M melanoma = tested on: MALME-3M melanoma
# SK-MEL-28 melanoma = tested on: SK-MEL-28 melanoma
# CCRF-CEM leukemia = tested on: CCRF-CEM leukemia
# UACC-62 melanoma = tested on: UACC-62 melanoma
# NCI-H23 lung = tested on: NCI-H23 lung
# NCI-H322M lung = tested on: NCI-H322M lung
# NCI/ADR-RES ovarian = tested on: NCI/ADR-RES ovarian
# 786-0 renal = tested on: 786-0 renal
# HL-60(TB) leukemia = tested on: HL-60(TB) leukemia
# IGROV1 ovarian = tested on: IGROV1 ovarian
# A549 NSCLC = tested on: A549 NSCLC
# BT-549 breast = tested on: BT-549 breast
# NCI-H522 lung = tested on: NCI-H522 lung
# DU-145 prostate = tested on: DU-145 prostate
# SNB-19 CNS = tested on: SNB-19 CNS
# HS 578T breast = tested on: HS 578T breast
# CAKI-1 renal = tested on: CAKI-1 renal
# RPMI-8226 leukemia = tested on: RPMI-8226 leukemia
# SK-MEL-5 melanoma = tested on: SK-MEL-5 melanoma
# SNB-75 CNS = tested on: SNB-75 CNS
# UO-31 renal = tested on: UO-31 renal
# MDA-MB-435 melanoma = tested on: MDA-MB-435 melanoma
# T-47D breast = tested on: T-47D breast
# EKVX NSCLC = tested on: EKVX NSCLC
# OVCAR-4 ovarian = tested on: OVCAR-4 ovarian
# OVCAR-8 ovarian = tested on: OVCAR-8 ovarian
# HT29 colon = tested on: HT29 colon
# U251 glioblastoma = tested on: U251 glioblastoma
# SN12C renal = tested on: SN12C renal
# K-562 leukemia = tested on: K-562 leukemia
# HOP-92 NSCLC = tested on: HOP-92 NSCLC
# NCI-H226 lung = tested on: NCI-H226 lung
# PC-3 prostate = tested on: PC-3 prostate
# HCC-2998 colon = tested on: HCC-2998 colon
# SK-MEL-2 melanoma = tested on: SK-MEL-2 melanoma
# A498 renal = tested on: A498 renal
# HCT-116 colon = tested on: HCT-116 colon
# SF-539 CNS = tested on: SF-539 CNS
# SW-620 colon = tested on: SW-620 colon
# OVCAR-3 ovarian = tested on: OVCAR-3 ovarian
# HCT-15 colon = tested on: HCT-15 colon
# HOP-62 NSCLC = tested on: HOP-62 NSCLC
# ACHN renal = tested on: ACHN renal
# SK-OV-3 ovarian = tested on: SK-OV-3 ovarian
# LOX IMVI melanoma = tested on: LOX IMVI melanoma
# MOLT-4 leukemia = tested on: MOLT-4 leukemia
# SF-295 CNS = tested on: SF-295 CNS
# MDA-MB-468 breast = tested on: MDA-MB-468 breast
smiles,measurement,setting,value
Cc1c(NC(=O)c2cc(C(N)=O)nc3cc(F)ccc23)c(C(F)(F)F)nn1Cc1ccc(C#N)cc1,GI50,NCI-H460 NSCLC,2870 nM
same,TGI,NCI-H460 NSCLC,16.3 µM
same,GI50,UACC-257 melanoma,33.4 µM
same,TGI,UACC-257 melanoma,> 100 µM
same,GI50,M14 melanoma,11.1 µM
same,TGI,M14 melanoma,24.9 µM
same,GI50,OVCAR-5 ovarian,2810 nM
same,TGI,OVCAR-5 ovarian,9.74 µM
same,GI50,KM12 colon,142 nM
same,TGI,KM12 colon,1900 nM
same,GI50,SF-268 CNS,6.04 µM
same,TGI,SF-268 CNS,28.2 µM
same,GI50,RXF 393 renal,693 nM
same,TGI,RXF 393 renal,5.32 µM
same,GI50,MDA-MB-231 breast,5.69 µM
same,TGI,MDA-MB-231 breast,41.6 µM
same,GI50,COLO 205 colon,102 nM
same,TGI,COLO 205 colon,1330 nM
same,GI50,MCF7 breast,198 nM
same,TGI,MCF7 breast,1220 nM
same,GI50,TK-10 renal,1370 nM
same,TGI,TK-10 renal,5.06 µM
same,GI50,MALME-3M melanoma,2940 nM
same,TGI,MALME-3M melanoma,16.4 µM
same,GI50,SK-MEL-28 melanoma,18.3 µM
same,TGI,SK-MEL-28 melanoma,> 100 µM
same,GI50,CCRF-CEM leukemia,33.7 nM
same,TGI,CCRF-CEM leukemia,10.3 µM
same,GI50,UACC-62 melanoma,2780 nM
same,TGI,UACC-62 melanoma,15.4 µM
same,GI50,NCI-H23 lung,2930 nM
same,TGI,NCI-H23 lung,16.5 µM
same,GI50,NCI-H322M lung,1710 nM
same,TGI,NCI-H322M lung,12.9 µM
same,GI50,NCI/ADR-RES ovarian,1350 nM
same,TGI,NCI/ADR-RES ovarian,2870 nM
same,GI50,786-0 renal,319 nM
same,TGI,786-0 renal,12.3 µM
same,GI50,HL-60(TB) leukemia,1060 nM
same,TGI,HL-60(TB) leukemia,2380 nM
same,GI50,IGROV1 ovarian,1690 nM
same,TGI,IGROV1 ovarian,8.2 µM
same,GI50,A549 NSCLC,2000 nM
same,TGI,A549 NSCLC,15.6 µM
same,GI50,BT-549 breast,605 nM
same,TGI,BT-549 breast,12.1 µM
same,GI50,NCI-H522 lung,4.54 µM
same,TGI,NCI-H522 lung,27.8 µM
same,GI50,DU-145 prostate,75.2 nM
same,TGI,DU-145 prostate,2430 nM
same,GI50,SNB-19 CNS,1810 nM
same,TGI,SNB-19 CNS,12.3 µM
same,GI50,HS 578T breast,22 nM
same,TGI,HS 578T breast,123 nM
same,GI50,CAKI-1 renal,8.33 µM
same,TGI,CAKI-1 renal,37.4 µM
same,TGI,RPMI-8226 leukemia,163 nM
same,GI50,SK-MEL-5 melanoma,12.3 µM
same,TGI,SK-MEL-5 melanoma,54.8 µM
same,GI50,SNB-75 CNS,12.2 µM
same,TGI,SNB-75 CNS,27 µM
same,GI50,UO-31 renal,208 nM
same,TGI,UO-31 renal,9.83 µM
same,GI50,MDA-MB-435 melanoma,17.1 µM
same,TGI,MDA-MB-435 melanoma,> 100 µM
same,GI50,T-47D breast,151 nM
same,TGI,T-47D breast,11.5 µM
same,GI50,EKVX NSCLC,16.1 µM
same,TGI,EKVX NSCLC,66.3 µM
same,GI50,OVCAR-4 ovarian,80.3 nM
same,TGI,OVCAR-4 ovarian,1700 nM
same,GI50,OVCAR-8 ovarian,1620 nM
same,TGI,OVCAR-8 ovarian,5.83 µM
same,GI50,HT29 colon,134 nM
same,TGI,HT29 colon,1310 nM
same,GI50,U251 glioblastoma,974 nM
same,TGI,U251 glioblastoma,12.9 µM
same,GI50,SN12C renal,237 nM
same,TGI,SN12C renal,12.1 µM
same,GI50,K-562 leukemia,5.92 µM
same,TGI,K-562 leukemia,22.3 µM
same,GI50,HOP-92 NSCLC,633 nM
same,TGI,HOP-92 NSCLC,7.03 µM
same,GI50,NCI-H226 lung,84.2 nM
same,TGI,NCI-H226 lung,8.1 µM
same,GI50,PC-3 prostate,53.2 nM
same,TGI,PC-3 prostate,276 nM
same,GI50,HCC-2998 colon,95.6 nM
same,TGI,HCC-2998 colon,1690 nM
same,GI50,SK-MEL-2 melanoma,17.4 µM
same,TGI,SK-MEL-2 melanoma,35.5 µM
same,GI50,A498 renal,742 nM
same,TGI,A498 renal,15.4 µM
same,GI50,HCT-116 colon,1970 nM
same,TGI,HCT-116 colon,12.2 µM
same,GI50,SF-539 CNS,5.05 µM
same,TGI,SF-539 CNS,27.2 µM
same,GI50,SW-620 colon,4.76 µM
same,TGI,SW-620 colon,33.9 µM
same,GI50,OVCAR-3 ovarian,50.9 nM
same,TGI,OVCAR-3 ovarian,1190 nM
same,GI50,HCT-15 colon,14.1 µM
same,TGI,HCT-15 colon,> 100 µM
same,GI50,HOP-62 NSCLC,3.3 µM
same,TGI,HOP-62 NSCLC,16.5 µM
same,GI50,ACHN renal,2540 nM
same,TGI,ACHN renal,27.1 µM
same,GI50,SK-OV-3 ovarian,132 nM
same,TGI,SK-OV-3 ovarian,313 nM
same,GI50,LOX IMVI melanoma,1670 nM
same,TGI,LOX IMVI melanoma,12.8 µM
same,GI50,MOLT-4 leukemia,110 nM
same,TGI,MOLT-4 leukemia,2020 nM
same,GI50,SF-295 CNS,1070 nM
same,TGI,SF-295 CNS,5.5 µM
same,GI50,MDA-MB-468 breast,2660 nM
same,TGI,MDA-MB-468 breast,13.4 µM
